Consider twelve compounds from PubChem BioAssay (NCI).

Common to all, as to assay: inhibition of tumour cell growth, NCI panel, 48 h
The test system of test [1] is SK-MEL-5 melanoma.
Test [2] has as its system SW-620 colon.
The subject of test [3] is MOLT-4 leukemia.
For test [4], the system named is A549 NSCLC.
In test [5] the test system is RPMI-8226 leukemia.
Test [6] has as its system NCI/ADR-RES ovarian.
Test [7] concerns HOP-92 NSCLC.
In test [8] the test system is KM12 colon.
Test [9] deals with MDA-N.
Test [10] deals with SF-268 CNS.

The structures appear in SMILES notation. Values joined by “and” are separate entries in the source; they are usually repeats but may differ in a detail not shown here. Identical values can stand only once.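 Following 48 hours of exposure in 96-well plates, responses at five concentrations were used to interpolate endpoints linearly. GI50 is the concentration that inhibits growth by half. TGI denotes the concentration required for complete inhibition of growth.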

Take `CN(C)c1ccc(-c2c(C#N)c(S)n(NS(=O)(=O)c3ccccc3)c(=O)c2C#N)cc1`: the TGI in test [1] is 72.2 µM; in test [2], > 100 µM; in test [3], > 100 µM; in test [4], > 100 µM; in [5], 91 µM; in [6] it was 49.5 µM. In addition, the TGI in test [7] is > 100 µM; in test [8] it was 47.7 µM; in [9] it was 86.5 µM.
As to `COP(=O)(O)/C=C/C(NC(=O)C(Cl)(Cl)Cl)c1ccccc1` (stereo unspecified), the TGI in [1], in test [10], in test [2], in [3], in test [4] and in [5] was > 100 µM throughout. The TGI in test [6], in [7], in test [8] and in test [9] was > 100 µM in each case.
Turning to `C/C(N=Nc1nc2ccccc2s1)=C1/C=CC=CN1O`, the TGI in test [1], in test [10], in test [2], in test [3], in [4] and in test [5] was > 100 µM each time. Further, the TGI in test [6] was 98.1 µM; in [7], 60.9 µM; in test [8], > 100 µM; in [9], > 100 µM.
`CN(C)c1nc(=NCc2ccncc2)ss1`: the GI50 in test [1], in [4] and in test [8] was > 100 µM in each case. The TGI in test [1] is > 100 µM; in test [10], > 100 µM; in test [2], 50.7 µM; in test [3], 51.1 µM; in test [4] it was > 100 µM; in test [5], 53.1 µM. Moreover, the TGI in test [6] was > 100 µM; in test [7] it was > 100 µM; in test [8] it was > 100 µM; in test [9] it was > 31.6 µM.
Consider `CC(C)=CCc1c2c(c3occ(-c4ccc(O)c(O)c4)c(=O)c3c1O)C=CC(C)(C)O2`, for which the TGI came to 7.72 µM in test [1]; 4.93 µM in [10]; 2.36 µM in test [2]; 1.43 µM in test [3]; 7.6 µM in test [4]; 4.04 µM in test [5]. In addition, the TGI came to 5.87 µM in test [6], 5 µM in [7], 3.41 µM in [8] and 3.38 µM in test [9].
As to `CC(=O)OC[C@]1(C(=O)C(O)c2ccoc2)[C@H](C)CC[C@@]23COC(=O)C2=CCC[C@@H]31` (stereo partly specified), the TGI in [1], in test [10], in test [2], in test [3], in test [4] and in [5] was > 10 µM in each case. In addition, the TGI in test [6], in test [7], in [8] and in [9] was > 10 µM in each case.
As to `N#Cc1nc(-c2cc([N+](=O)[O-])cc([N+](=O)[O-])c2)oc1N`, the TGI in test [1], in [10], in test [2], in test [3], in test [4] and in [5] was > 10 µM throughout. For the same compound, the TGI in [6], in [7], in test [8] and in [9] was > 10 µM each time.
Turning to `CC1(C)O[C@@H]2COC(=O)[C@@H]2O1`, the TGI in [1], in [10], in test [2], in test [3], in test [4] and in test [6] was > 100 µM each time. Besides, the TGI in test [7], in [8] and in test [9] was > 100 µM in each case.
As to `C=C1C(=O)OC2/C=C(\CO)C(OC(C)=O)CC(O)/C(C)=C/C(OC(=O)C(C)CC)C12` (stereo unspecified), the TGI in test [1] is 33 µM and 30.9 µM; in [10] it was 73.3 µM and 49.9 µM; in [2], 24.4 µM and 78 µM; in [3], 28.2 µM and 64.3 µM; in test [4], > 100 µM; in test [5] it was 23.4 µM and 56.3 µM. Also, the TGI in [6] is > 100 µM; in test [7] it was 35 µM and 63.2 µM; in [8] it was 32.5 µM and > 100 µM; in [9], 33.4 µM. The GI50 was 11 µM and 22.6 µM in test [3]; 5.57 µM and 24.9 µM in test [5]; 17.5 µM and 35.2 µM in test [8].
Regarding `CCOC(=O)c1[nH]cc(C)c1-c1ccn(-c2ccccc2)c1`, the TGI was 63.9 µM in test [1]; > 100 µM in test [10]; > 100 µM in test [2]; 65.2 µM in [3]; > 100 µM in [4]; > 100 µM in test [6]. Also, the TGI in [7] was 82.8 µM; in test [8] it was > 100 µM; in test [9] it was > 100 µM.
Consider `CCCCCCCCCC[C@H](O)[C@H]1CC[C@H]([C@H]2CC[C@H]([C@H](O)CC[C@H](O)CCCCCCC[C@@H](O)CC3=C[C@H](C)OC3=O)O2)O1`, for which the TGI in [1] was 3.93 µM; in [10] it was > 100 µM; in test [2], > 100 µM; in [3], 80.1 µM; in test [4], > 100 µM; in test [5], 10.5 µM. The TGI in [6], in [7], in test [8] and in test [9] was > 100 µM each time. For the same compound, the GI50 in test [10] is > 100 µM; in [2], > 100 µM; in test [3] it was 19.9 µM; in test [4] it was 7.18 µM; in [6] it was 16.5 µM; in test [7], > 100 µM. In addition, the GI50 in [8] is 38.1 µM; in test [9], 6.36 µM.
Take `CCC1=CCC23C(=O)C=CC(=O)C2(C1)C(=O)c1cccc(OC)c1C3=O` (stereo unspecified): the TGI in test [1] turned out to be 31.5 µM; in test [10] it was 36.2 µM; in [2], 34 µM; in [3] it was 17.4 µM; in [4] it was 51.5 µM; in test [5], 33.4 µM. The TGI was determined as 59.5 µM in [6], 29 µM in [7], 43.6 µM in test [8] and 35.7 µM in [9].
